According to patent US20250353820A1, “ANTIVIRAL PYRAZOLOPYRIDINONE COMPOUNDS” (Novartis AG, priority 2019, published 2025):
Where two headings read alike, the source gives them in different places.

Tests used:
[1] = system: HCMV-Rluc virus (AD169 pp28-hRluc rUL131); experiment: CMV Luciferase Assay of Compounds 243-262 in ARPE-19 cells; format: cell-based; conditions: Human betaherpesvirus 5, AD169, ARPE-19, 72 h, read-out: CMV-Luc Cellular EC50 in ARPE-19
Experimental: The assay uses a Luciferase-encoding HCMV. Luciferase is expressed under the control of a late viral gene (pp28) promoter in the AD169 strain, so that expression of the reporter is dependent on viral DNA replication. Compounds that affect any stage from viral entry to DNA replication result in a change in luciferase levels.
Compounds 243-262 were tested in a luminescence assay as follows.
ARPE-19 cells were maintained in growth medium (DMEM/F12 Glutamax+10 fetal bovine serum (FBS)+PenStrep) and, before reaching full confluence, were transferred to a centrifuge tube and spun for 5 minutes at 1000 rpm. The cells were resuspended in assay medium (DMEM/F12 Glutamax+2% FBS+PenStrep) and counted. Cell density was adjusted to one million cells per milliliter and infected with HCMV-Rluc virus (AD169 pp28-hRluc rUL131; MOI 0.6) in a 50 ml conical tube for 2 hours while shaking. After dilution of the infectious suspension ten-fold (to 100,000 cells per milliliter), 8000 cells are directly plated in 384-well plates pre-spotted with the compound to be tested. The cells were incubated for 72 hours at 37 degrees Celsius. Cells were then placed at room temperature and allowed to equilibrate for 20 minutes before addition of the Renilla-Glo (Promega) reagent. After a 10-minute incubation at room temperature, luminescence was measured on a microplate reader.

[2] = system: Luciferase-encoding HCMV (AD169 strain); experiment: microbe, parasite or virus in culture; format: cell-based
[3] = target: human CMV DNA polymerase UL54 (Human cytomegalovirus (strain AD169) (HHV-5) (Human herpesvirus 5), UniProt P08546); experiment: biochemical; conditions: 100 pM CMV polymerase, 60 minutes at room temperature; read-out: CMV-polymerase Biochemical IC50
[4] = target: human HSV DNA polymerase UL30 (Human herpesvirus 1 (strain 17) (HHV-1) (Human herpes simplex virus 1), UniProt P04293); experiment: biochemical; conditions: 625 pM HSV polymerase, 20 minutes at room temperature; read-out: HSV-polymerase Biochemical IC50
VZV Ellen strain = experiment: VZV qPCR assay; conditions: Human alphaherpesvirus 3, MRC5, 48 h, read-out: Cellular activity against VZV (EC50)
[5] = system: KOS strain of HSV-1 virus; experiment: HSV-1 qPCR assay; conditions: read-out: Cellular activity against HSV-1 (EC50)
[6] = system: EBV (SNU-719 gastric carcinoma cell line latently infected); experiment: EBV qPCR assay; conditions: human gammaherpesvirus 4, 72 h, read-out: Cellular activity against EBV (EC50)
[7] = Human betaherpesvirus 5, AD169, 72 h, read-out: CMV-Luc Cellular EC50, NN-NHDF cells, MOI of 1, 72 hrs
[8] = read-out: CMV-Luc Cellular EC50, NN-NHDF cells, MOI of 1, 72 hrs

| SMILES | EC50 [2, 7] [nM] | IC50 [3] [nM] | IC50 [4] [nM] | also measured |
| --- | --- | --- | --- | --- |
| Cn1nc(C(=O)NCc2ccc(C#N)cc2)c2c1C(=O)N(CC1(S(=O)(=O)C(C)(C)C(O)CO)CC1)CC2 (centres unmarked) [Example 252, N-(4-cyanobenzyl)-6-((1-((3,4-dihydroxy-2-methylbutan-2-yl)sulfonyl)cyclopropyl)methyl)-1-methyl-7-oxo-4,5,6,7-tetrahydro-1H-pyrazolo[3,4-c]pyridine-3-carboxamide] |  |  |  | EC50 [1]: 21.9 nM |
| Cn1nc(C(=O)NCc2ccc(C#N)cc2)c2c1C(=O)N(CC1(S(=O)(=O)C(C)(C)COCCO)CC1)CC2 [Example 87, N-(4-Cyanobenzyl)-6-((1-((1-(2-hydroxyethoxy)-2-methylpropan-2-yl)sulfonyl)cyclopropyl)methyl)-1-methyl-7-oxo-4,5,6,7-tetrahydro-1H-pyrazolo[3,4-c]pyridine-3-carboxamide] | 44 | 1 | 32 |  |
| Cn1nc(C(=O)NCc2ccc(C#N)cc2)c2c1C(=O)N(CC1(S(=O)(=O)C(C)(C)C(O)CN)CC1)CC2 (single isomer, unassigned) [Example 199] |  | 1 | 28 | EC50 (VZV Ellen strain): 127 nM; EC50 ([5]; Human alphaherpesvirus 1, 24 h): 30 nM; EC50 [6]: 11 nM |
| N#Cc1ccc(CNC(=O)c2n[nH]c3c2CCN(CC2(S(=O)(=O)C4CC4)CC2)C3=O)cc1 [Example 45, N-(4-Cyanobenzyl)-6-((1-(cyclopropylsulfonyl)cyclopropyl)methyl)-7-oxo-4,5,6,7-tetrahydro-1H-pyrazolo[3,4-c]pyridine-3-carboxamide] | 146 | 6 | 169 |  |
| CNCC(O)C(C)(C)S(=O)(=O)C1(CN2CCc3c(C(=O)NCc4ccc(Cl)cc4)nn(C)c3C2=O)CC1 (single isomer, unassigned) [Example 205] |  | 2 | 29 | EC50 [2, 8]: 9 nM |
| CC(N)COCC(C)(C)S(=O)(=O)C1(CN2CCc3c(C(=O)NCc4ccc(C#N)cc4)nn(C)c3C2=O)CC1 (single isomer, unassigned) [Example 100, (R)- or (S)-6-((1-((1-(2-Aminopropoxy)-2-methylpropan-2-yl)sulfonyl)cyclopropyl)methyl)-N-(4-cyanobenzyl)-1-methyl-7-oxo-4,5,6,7-tetrahydro-1H-pyrazolo[3,4-c]pyridine-3-carboxamide] | 13 | 4 | 60 |  |
| CC(C)[C@@H](NS(=O)(=O)C1(CN2CCc3c(C(=O)NCc4ccc(Cl)cc4)nn(C)c3C2=O)CC1)C(=O)O [Example 215, ((1-((3-((4-Chlorobenzyl)carbamoyl)-1-methyl-7-oxo-1,4,5,7-tetrahydro-6H-pyrazolo[3,4-c]pyridin-6-yl)methyl)cyclopropyl)sulfonyl)-D-valine] |  | 1 | 28 | EC50 ([2]; NN-NHDF cells, MOI of 1, 72 hrs, read-out: CMV-Luc Cellular EC50): 1900 nM |
| Cn1nc(C(=O)NCc2ccc(Cl)cc2)c2c1C(=O)N(CC1(S(=O)(=O)C(C)(C)C(O)CN)CC1)CC2 (single isomer, unassigned) [Example 201] |  | 1 | 15 | EC50 [2, 8]: 6 nM; EC50 ([2]; read-out: Cellular activity against CMV (EC50), Table 18, CMV): 6 nM; EC50 ([5]; NN-NHDF cells, MOI of 0.01, 24 hrs, qPCR): 18 nM |
